Patent US20230407243A1, “GENETIC PLATFORM TO INVESTIGATE THE FUNCTIONS OF BACTERIAL DRUG EFFLUX PUMPS” (priority 2022, published 2023)
Converted amounts (≈) assume the structure as drawn. Where two headings read alike, the source gives them in different places.

How the values were obtained:
Assay type in all cases: cell-based, Escherichia coli
ΔtolC (empty pCA24N) = assay: microbe, parasite or virus in culture; conditions: 0.1 mM IPTG; for MIC: Escherichia coli, ΔtolC empty pCA24N
EKO-35 rspA (pCA24N) = assay: MIC of strains harboring ASKA plasmids; conditions: 0.1 mM IPTG
K-12 (empty pCA24N) = assay: MIC of strains harboring ASKA plasmids; conditions: 0.1 mM IPTG; for MIC: Escherichia coli, K-12 empty pCA24N, read-out: MIC
EKO-35 wcaC (pCA24N) = assay: MIC of strains harboring ASKA plasmids; conditions: 0.1 mM IPTG; for MIC: EKO-35 wcaC
[1] = 4 μg/mL chloramphenicol selection

## Cn1cc(Br)c(-c2cccc(NC(=O)Nc3ccc(OC(F)(F)F)cc3)c2)n1 [compound 14]
ΔtolC (empty pCA24N); no plasmid selection
  MIC, ΔtolC (empty pCA24N), Chlor −: 1.25 μg/mL
ΔtolC (empty pCA24N); with chloramphenicol plasmid selection
  MIC, ΔtolC (empty pCA24N), Chlor +: 1.25 μg/mL
EKO-35 rspA (pCA24N); [1]
  MIC, EKO-35 rspA (pCA24N), Chlor +: >5 μg/mL
EKO-35 rspA (pCA24N); no plasmid selection
  MIC, EKO-35 rspA (pCA24N), Chlor −: >5 μg/mL
K-12 (empty pCA24N); 25 μg/mL chloramphenicol selection
  MIC, K-12 (empty pCA24N), Chlor +: >5 μg/mL
K-12 (empty pCA24N); no plasmid selection
  MIC, K-12 (empty pCA24N), Chlor −: >5 μg/mL
EKO-35 wcaC (pCA24N); [1]
  MIC, EKO-35 wcaC (pCA24N), Chlor +: >5 μg/mL
EKO-35 wcaC (pCA24N); no plasmid selection
  MIC, EKO-35 wcaC (pCA24N), Chlor −: >5 μg/mL

## COc1cc(Cc2cnc(N)nc2N)cc(OC)c1OC [trimethoprim]
ΔtolC (empty pCA24N); Chlor +
  MIC: 1.56 µg/mL (≈ 5.37 µM)
ΔtolC (empty pCA24N); Chlor −
  MIC: 0.195 µg/mL (≈ 0.672 µM)
K-12 (empty pCA24N); Chlor + (25 μg/mL chloramphenicol)
  MIC: 0.781 µg/mL
K-12 (empty pCA24N); Chlor −
  MIC: 0.781 µg/mL
EKO-35 wcaC (pCA24N); Chlor + (4 μg/mL)
  MIC: 0.781 µg/mL
EKO-35 wcaC (pCA24N); Escherichia coli, Chlor −, read-out: MIC
  MIC: 0.781 µg/mL
